Test results as given in patent US10034836B2, “Formulations of guanylate cyclase C agonists and methods of use” (SYNERGY PHARMACEUTICALS, INC., priority 2008, dated 2018).
Where a SMILES comes first, the peptide text is derived from it. Bridges are numbered along the chain shown (N, C = ends).

Experiments:
[1] = Stability in simulated intestinal fluid (SIF), HPLC analysis; type: in vitro ADME
Procedure: FIG. 2B: HPLC chromatographic spectra of SP-304 samples after incubation with: (A) heat-inactivated SIF for 300 minutes, or (B) SIF for 120 minutes. The arrows show the elution position of SP-304.
FIGS. 7D-1-7D-2: HPLC chromatograms of SP-304 incubated for 0 min in SIF (FIG. 7D-1) and 60 min in SIF (FIG. 7D-2), respectively. The arrows indicate the elution positions of the parent SP-304 peptides. […] These new peptide peaks represent degradation products of SP-304.
FIGS. 7E-1-7-E2: HPLC chromatograms of SP-332 incubated for 0 min in SIF (FIG. 7E-1) and 120 min in SIF (FIG. 7E-2), respectively. The arrows indicate the elution positions of the parent SP-332 peptides.
FIGS. 7F-1-7F-2: HPLC chromatograms of SP-333 incubated for 0 min in SIF (FIG. 7F-1) and 120 min in SIF (FIG. 7F-2), respectively. The arrows indicate the elution positions of the parent SP-333 peptides.
FIGS. 7G-1-7G-5: Incubation of SP-333 with SIF for 2, 6, 12 and 24 hrs. Effect of SIF digestion on the activity of SP-333 in T84 stimulation assay was determined (FIG. 7G-1) and samples were also analyzed by HPLC (FIGS. 7G2-5). The elution positions of the parent peptide and its metabolites are indicated by arrows.
The physical stability of SP-304 peptide exposed to SIF was evaluated by HPLC using the method described for SGF digestion. […]

[2] = test system: healthy male and female subjects; conditions: in vivo, po
[3] = test system: healthy male and female subjects; assay: Phase 1 single ascending oral dose study, safety and tolerability; conditions: healthy volunteers
[4] = type: in vitro ADME; conditions: pH 2
Procedure: FIG. 1A: Biological activity of SP-304 incubated for varying lengths of time in simulated gastric fluid (SGF). The biological activity of SP-304 was determined by measuring its ability to stimulate cGMP synthesis in T84 cells. Samples incubated for 0, 15, 30, 60, 90 and 120 minutes, respectively, were collected and analyzed for biological activity—with activity of the 0 min sample defined as 100% biological activity. The activities of the other samples are shown as percentage activity relative to the 0 min activity sample. Data points shown are the average of triplicate measurements±SD.
The stability of SP-304 in the presence of simulated gastric fluid (SGF) was determined by biological activity measurements and HPLC analyses (FIGS. 1A & 1B). SP-304 (final concentration of 8.5 mg/ml) was incubated in SGF (Proteose peptone (8.3 g/liter; Difco), D-Glucose (3.5 g/liter; Sigma), NaCl (2.05 g/liter; Sigma), KH2PO4 (0.6 g/liter; Sigma), CaCl2 (0.11 g/liter), KCl (0.37 g/liter; Sigma), Porcine bile (final 1× concentration 0.05 g/liter; Sigma) in PBS, Lysozyme (final 1× concentration 0.10 g/liter; Sigma) in PBS, Pepsin (final 1× concentration 0.0133 g/liter; Sigma) in PBS). SGF was made on the day of the experiment and the pH was adjusted to 2.0±0.1 using HCl or NaOH as necessary. After the pH adjustment, SGF is filter sterilized with 0.22 μm membrane filters. […]

cynomolgus monkeys = assay: Repeated oral dose toxicity study of SP-304 in cynomolgus monkeys (14 days); type: in vivo
Procedure: The primary purpose of this experiment was to evaluate the toxicity and pharmacokinetics of a repeated oral dose of SP-304 in cynomolgus monkeys. […] Monkeys returned to normal stool consistency within 24-48 hours following the last dose of SP-304.

For CC(C)C[C@H](NC(=O)[C@@H]1CSSC[C@@H]2NC(=O)[C@H](CC(C)C)NC(=O)[C@H](CCC(=O)O)NC(=O)[C@@H](NC(=O)[C@H](CCC(=O)O)NC(=O)[C@H](CC(=O)O)NC(=O)[C@@H](N)CC(N)=O)CSSC[C@H](NC(=O)[C@H](C)NC(=O)[C@H](C(C)C)NC(=O)[C@H](CC(N)=O)NC(=O)[C@H](C(C)C)NC2=O)C(=O)N[C@@H]([C@@H](C)O)C(=O)NCC(=O)N1)C(=O)O [SP-304, Asn^1-Asp^2-Glu^3-Cys^4-Glu^5-Leu^6-Cys^7-Val^8-Asn^9-Val^10-Ala^11-Cys^12-Thr^13-Gly^14-Cys^15-Leu^16] (H-NDECELCVNVACTGCL-OH; disulfide 4-12, 7-15), the “HPLC analysis after incubation with heat-inactivated SIF” value [1] was “remained intact”, the “most prevalent adverse event: grade I diarrhea (CTCAE)” value [2] was 12.7% and the “severe adverse events (SAEs)” value ([3]; 0.1 to 48.6 mg single oral dose) was “no severe adverse events”. For the same molecule, the “tolerability of single oral dose” value ([3]; 0.1 to 48.6 mg) was “well-tolerated”, the “activity after exposure to the acidic pH of the SGF” value [4] was “unaltered” and the “biological activity after incubation with SGF (breakdown in SGF)” value [4] was “resistant to breakdown in SGF”. The “time to return to normal stool consistency following the last dose” value (cynomolgus monkeys; cynomolgus monkey, in vivo) was 24 to 48 h and the “tolerability of repeated oral dose” value (cynomolgus monkeys; daily dose of 250 mg for 14 consecutive days, cynomolgus monkeys) was “well tolerated”.
